Source: PubChem BioAssay AID1963831 (Molecular Pharmacology Branch, DTP, NCI, 2024)

Tested on: 889142-216-R-J1-PDC complex spheroid viability
Test: Anticancer human tumor 889142-216-R-J1-PDC patient-derived bladder carcinoma cell line growth inhibition [POLQ]
Details: for IC50: curve of first compound; for viability, T/C: stronger effect = lower value
Outline: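 Complex spheroid viability model combining PDC tumour cells with endothelial (HUVEC) and MSC stromal cells. Novobiocin, ART-558 or RP6685 were tested singly and in combination with standard and investigational anticancer drugs. Each was titrated in half-log steps from near clinical Cmax, or from 10 microM where Cmax was unknown.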

[1] = second compound 0.0316 µM, first compound 0.00316 µM
[2] = second compound 0.0316 µM, first compound 0.01 µM
[3] = second compound 0.0316 µM, first compound 0.0316 µM
[4] = second compound 0.0316 µM, first compound 0.1 µM
[5] = second compound 0.1 µM, first compound 0.00316 µM
[6] = second compound 0.1 µM, first compound 0.01 µM
[7] = second compound 0.1 µM, first compound 0.0316 µM
[8] = second compound 0.1 µM, first compound 0.1 µM
[9] = second compound 0.316 µM, first compound 0.00316 µM
[10] = second compound 0.316 µM, first compound 0.01 µM
[11] = second compound 0.316 µM, first compound 0.0316 µM
[12] = second compound 0.316 µM, first compound 0.1 µM
[13] = second compound 1 µM, first compound 0.00316 µM
[14] = second compound 1 µM, first compound 0.01 µM
[15] = second compound 1 µM, first compound 0.0316 µM
[16] = second compound 1 µM, first compound 0.1 µM
[17] = second compound 3.16 µM, first compound 0.00316 µM
[18] = second compound 3.16 µM, first compound 0.01 µM
[19] = second compound 3.16 µM, first compound 0.0316 µM
[20] = second compound 3.16 µM, first compound 0.1 µM
[21] = second compound 10 µM, first compound 0.00316 µM
[22] = second compound 10 µM, first compound 0.01 µM
[23] = second compound 10 µM, first compound 0.0316 µM
[24] = second compound 10 µM, first compound 0.1 µM
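Further: spheroids exposed to compounds for seven days.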
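Wherever viability, T/C is given: 100% = DMSO vehicle control viability.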

Work on `CC[C@@]1(O)C(=O)OCc2c1cc1n(c2=O)Cc2cc3c(CN(C)C)c(O)ccc3nc2-1` + Nc1ccc(C#CCN(C(=O)Cc2ncc(C(F)(F)F)cc2C(F)(F)F)c2ccc(F)cc2)nn1 yielded an IC50 (second compound 0.0316 µM) of over 100 nM, an IC50 (second compound 0.1 µM) of over 100 nM and an IC50 (second compound 0.316 µM) of over 100 nM. The IC50 (second compound 1 µM) was over 100 nM, the IC50 (second compound 3.16 µM) was over 100 nM and the IC50 (second compound 10 µM) was over 100 nM. For the same compound, the viability, T/C (second compound 0.0316 µM, first compound 0.000316 µM) was 101%, the viability, T/C (second compound 0.0316 µM, first compound 0.001 µM) was 78.3% and the viability, T/C [1] was 95.8%. It also gave a viability, T/C [2] of 87.9%, a viability, T/C [3] of 67.5% and a viability, T/C [4] of 56.1%. It also gave a viability, T/C (second compound 0.1 µM, first compound 0.000316 µM) of 99.4%, a viability, T/C (second compound 0.1 µM, first compound 0.001 µM) of 89.4% and a viability, T/C [5] of 91.3%. It also gave a viability, T/C [6] of 75.2%, a viability, T/C [7] of 59.7% and a viability, T/C [8] of 52.4%. For the same compound, the viability, T/C (second compound 0.316 µM, first compound 0.000316 µM) was 86.8%, the viability, T/C (second compound 0.316 µM, first compound 0.001 µM) was 77.6% and the viability, T/C [9] was 116%. It also gave a viability, T/C [10] of 94.8%, a viability, T/C [11] of 54.7% and a viability, T/C [12] of 59.2%. The viability, T/C (second compound 1 µM, first compound 0.000316 µM) was 86.9%, the viability, T/C (second compound 1 µM, first compound 0.001 µM) was 67.1% and the viability, T/C [13] was 109%. It also gave a viability, T/C [14] of 70.7%, a viability, T/C [15] of 63.1% and a viability, T/C [16] of 55.9%. The viability, T/C (second compound 3.16 µM, first compound 0.000316 µM) was 87.1%, the viability, T/C (second compound 3.16 µM, first compound 0.001 µM) was 74.4% and the viability, T/C [17] was 109%. The viability, T/C [18] was 89.4%, the viability, T/C [19] was 57.4% and the viability, T/C [20] was 52.6%. The viability, T/C (second compound 10 µM, first compound 0.000316 µM) was 121%, the viability, T/C (second compound 10 µM, first compound 0.001 µM) was 135% and the viability, T/C [21] was 86.2%. For the same compound, the viability, T/C [22] was 72.6%, the viability, T/C [23] was 70.5% and the viability, T/C [24] was 53.4%.

In the case of `CCc1c2c(nc3ccc(O)cc13)-c1cc3c(c(=O)n1C2)COC(=O)[C@]3(O)CC` + Nc1ccc(C#CCN(C(=O)Cc2ncc(C(F)(F)F)cc2C(F)(F)F)c2ccc(F)cc2)nn1, the IC50 (second compound 0.0316 µM) is reported as 19.5 nM, the IC50 (second compound 0.1 µM) is reported as 16 nM and the IC50 (second compound 0.316 µM) is reported as 13.3 nM. For the same compound, the IC50 (second compound 1 µM) was 12.6 nM, the IC50 (second compound 3.16 µM) was 22.4 nM and the IC50 (second compound 10 µM) was 11.7 nM. The viability, T/C [1] was 63.1%, the viability, T/C [2] was 61.6% and the viability, T/C [3] was 41.2%. It also gave a viability, T/C [4] of 32.9%, a viability, T/C (second compound 0.0316 µM, first compound 0.316 µM) of 25.2% and a viability, T/C (second compound 0.0316 µM, first compound 1 µM) of 9.02%. The viability, T/C [5] was 61.2%, the viability, T/C [6] was 51.1% and the viability, T/C [7] was 44.6%. It also gave a viability, T/C [8] of 34.8%, a viability, T/C (second compound 0.1 µM, first compound 0.316 µM) of 30.4% and a viability, T/C (second compound 0.1 µM, first compound 1 µM) of 8.83%. The viability, T/C [9] was 66.6%, the viability, T/C [10] was 50% and the viability, T/C [11] was 38.6%. For the same compound, the viability, T/C [12] was 34%, the viability, T/C (second compound 0.316 µM, first compound 0.316 µM) was 23.9% and the viability, T/C (second compound 0.316 µM, first compound 1 µM) was 11.5%. The viability, T/C [13] was 70%, the viability, T/C [14] was 46.6% and the viability, T/C [15] was 41.3%. For the same compound, the viability, T/C [16] was 30.5%, the viability, T/C (second compound 1 µM, first compound 0.316 µM) was 23.4% and the viability, T/C (second compound 1 µM, first compound 1 µM) was 11.2%. For the same compound, the viability, T/C [17] was 59.3%, the viability, T/C [18] was 65.6% and the viability, T/C [19] was 39.4%. For the same compound, the viability, T/C [20] was 35.8%, the viability, T/C (second compound 3.16 µM, first compound 0.316 µM) was 30.9% and the viability, T/C (second compound 3.16 µM, first compound 1 µM) was 8.37%. It also gave a viability, T/C [21] of 57.4%, a viability, T/C [22] of 52.2% and a viability, T/C [23] of 41%. The viability, T/C [24] was 31.6%, the viability, T/C (second compound 10 µM, first compound 0.316 µM) was 28.3% and the viability, T/C (second compound 10 µM, first compound 1 µM) was 6.89%.
